{"source": "patent US4486437A", "about": "“Phthalidyl apovincaminate with cerebral eubolic activity” (Ausonia Farmaceutici s.r.l., priority 1982, dated 1984)", "key": {"[1]": {"test": "Acute toxicity, single administration (LD50, Litchfield and Wilcoxon method)", "details": "in vivo, rat, read-out: LD50 (95% confidence limit)", "source_text": "The toxicity of single administrations of AP 698 has been studied in the rat, treating the animals by the oral and intraperitoneal routes with various dosage levels of AP 698.\nThe LD50 values, determined by the Litchfield and Wilcoxon method (J. Pharmacol. Exp. Therap., 1949, 96, 99) are given in Table 1."}, "[2]": {"test_system": "cerebral electrical activity in the waking rabbit", "test": "Effect on deterioration of electrogenesis by cerebral ischaemia (EEG)", "format": "in vivo"}, "[3]": {"test_system": "hypobaric hypoxia in the mouse", "test": "Changes in mortality caused by hypobaric hypoxia (survival time)", "format": "in vivo", "details": "for Survival time (mean values ± standard error): 190 mmHg, controls 72,5 ± 3,5", "method": "The experiments were conducted on mice confined in cages in which the pressure was reduced to a level (190 mmHg) which caused the death of the animals.\nAfter determining the survival time of the controls, the effects of various dosage levels of AP 698 were studied."}, "isolated rabbit ileum": {"test_system": "isolated rabbit ileum", "test": "Effect on the smooth musculature, isolated rabbit ileum"}, "[4]": {"test": "Enzyme hydrolysis in vitro, incubation with rat plasma", "format": "in vitro ADME", "details": "apovincaminic acid formed measured by gas chromatography", "source_text": "(§1) The pharmacokinetics of enzyme hydrolysis has been studied both in vitro and in vivo in the rat after oral administration of AP 698 labelled with tritium."}, "[5]": {"test": "Pharmacokinetics in vivo after oral administration of tritium-labelled AP 698", "details": "rat; for presence in the plasma: after oral AP 698", "source_text": "as §1"}, "[6]": {"details": "post-ischaemic phase, contrary to controls"}, "[7]": {"details": "treated animals vs controls, i.v."}, "[8]": {"details": "16 mg/kg i.v., N.S. (MannWhitney)"}, "[9]": {"details": "25,6 mg/kg i.v., significance 0.01 (MannWhitney)"}, "[10]": {"details": "41,0 mg/kg i.v., significance 0.01 (MannWhitney)"}}, "note": "Read-outs that look alike come from different tables or passages of the source.", "data": [{"smiles": "CCC12C=C(C(=O)OC3OC(=O)c4ccccc43)n3c4c(c5ccccc53)CCN(CCC1)C42", "note": "(stereo not drawn) [AP 698, 13a-ethyl-2,3,5,6,13a,13b-hexahydro-1H-indolo(3,2,1-de)pyrido(3,2,1-ij)(1,5)naphthyridin-12-phthalidyl carboxylate]", "values": [{"measurement": "LD50", "setting": "[1]; ip, i.p.", "value": 684, "unit": "mg/kg"}, {"measurement": "LD50", "setting": "[1]; po, p.o.", "value": "> 3000", "unit": "mg/kg"}, {"measurement": "minimal effective dose", "setting": "[2]; Oryctolagus cuniculus, intravenous at the end of the ischaemic manoeuvre, dose-dependent, read-out: lowest dose with evident therapeutic effect", "value": 0.5, "unit": "mg/kg"}, {"measurement": "amplitude of the theta rhythm", "setting": "[2]; between the 10th and 20th minutes, contrary to controls", "value": "not reduced"}, {"measurement": "(theta+beta)/(delta+alpha) ratios", "setting": "[2]; between the 14th and the 25th minutes, vs controls", "value": "decrease less than in the controls"}, {"measurement": "frequency of the theta rhythm", "setting": "[2]; [6]", "value": "not increased"}, {"measurement": "relative representation times (theta rhythm)", "setting": "[2]; [6]", "value": "not dispersed"}, {"measurement": "beta rhythm", "setting": "[2]; post-ischaemic phase, vs controls", "value": "less reduced than in the controls"}, {"measurement": "recovery of the EEG and of the cortical reactivity to stimulation", "setting": "[2]; [7]", "value": "quicker recovery"}, {"measurement": "return to a trace comparable to that recorded before the ischaemic manoeuvre", "setting": "[2]; [7]", "value": "return in a shorter time"}, {"measurement": "Survival time (mean values ± standard error)", "setting": "[3]; [8]", "value": "67,5 ± 2,5 sec."}, {"measurement": "Variation (survival time)", "setting": "[3]; [8]", "value": "-6,9%"}, {"measurement": "Survival time (mean values ± standard error)", "setting": "[3]; [9]", "value": "116,3 ± 13,5 sec."}, {"measurement": "Variation (survival time)", "setting": "[3]; [9]", "value": "+60,4%"}, {"measurement": "Survival time (mean values ± standard error)", "setting": "[3]; [10]", "value": "157,9 ± 33,2 sec."}, {"measurement": "Variation (survival time)", "setting": "[3]; [10]", "value": "+117,8%"}, {"measurement": "survival time, protective effect on induced hypobaric hypoxia (in words)", "setting": "[3]; mouse, various dosage levels", "value": "highly significant extension of the survival time with a substantial protective effect"}, {"measurement": "myorelaxant activity", "setting": "isolated rabbit ileum; isolated rabbit ileum, compared with vincamine under the same conditions", "value": "considerable myorelaxant activity, decidedly higher than that displayed by vincamine"}, {"measurement": "effect on the tonus and amplitude of the contractions, compared with vincamine", "setting": "isolated rabbit ileum; musculature in basal conditions and made hypertonic with sodium or serotonin", "value": "greater effect"}, {"measurement": "half-life", "setting": "[4]", "value": 7.3, "unit": "min"}, {"measurement": "presence in the plasma", "setting": "[5]", "value": "both unchanged AP 698 and apovincaminic acid in the plasma"}, {"measurement": "half-life", "setting": "[5]; oral, plasma, read-out: half-life of unchanged AP 698", "value": 72, "unit": "min"}]}, {"smiles": "CCC12C=C(C(=O)O)n3c4c(c5ccccc53)CCN(CCC1)C42", "note": "(stereo not drawn) [apovincaminic acid]", "values": [{"measurement": "levels of apovincaminic acid following the administration of AP 698", "setting": "[5]", "value": "persistent levels"}, {"measurement": "presence in the plasma", "setting": "[5]", "value": "both unchanged AP 698 and apovincaminic acid in the plasma"}]}]}
